Several values for one entry are separate records, joined by “and”; a condition that tells them apart may be missing. Equal values may be shown once.
How the values were obtained:
[1] = test system: heterotrophic plate count; details: reduced from 960 cfu/mL; raw water source for drinking water plant; cited from earlier work
[2] = test system: Naegleria fowleri (ATCC #30462) cysts; assay: Test for destruction of Naegleria fowleri in de-chlorinated tap water (MPN viability); format: cell-based; details: Initial titer 2.42 × 10^3 cysts/mL, 2 L/minute, UV approx. 48 mJ/cm^2, ozone about 0.08 mg/L
[3] = test system: Adenovirus 2 (ATCC# VR-846); assay: Adenovirus inactivation in de-chlorinated tap water (TCID50 on PLC cells); format: cell-based; details: Initial titer 1.33 × 10^6 TCID50/ml; 2 L/minute; UV approx. 48 mJ/cm^2; ozone about 0.08 mg/L
Description: It was capable of processing 2 liters per minute of water. To study the effects of UV light only, the ozone generated by the apparatus was diverted away and not injected into the water stream. The UV dose (mJ/cm^2) was previously calibrated and found to be approximately 48 mJ/cm^2 as determined by MS-2 coliphagae biodosimetry. To study the effects of ozone only, the UW lamp was shrouded with a stainless steel sleeve to prevent any water from being exposed to the UW light from lamp 14. The ozone dose was measured in all cases to be about 0.08 mg/L. To study the combination of UV light with the ozone, the ozone was injected at the base of vessel 22 via a venturi as previously described.
Log Reductions in microorganisms were calculated as follows: Log 10 Reduction=Log10[Final titer]−Log10[Initial titer]
Adenovirus 2 (ATCC# VR-846) was obtained from the American Type Culture Collection. It was maintained on PLC (Primary Liver Carcinoma, ATCC# CRL-8024) cell line monolayers with MEM (Minimal essential Medium modified with Earle's salts) containing 2$ FBS (Fetal Bovine Serum) at an incubation temperature of 35° C. with 5% CO2. Viruses were purified by centrifugation (7756×g) to remove cell debris followed by polyethylene glycol (9% PEG, 0.5 mol/L NaCl) precipitation. […]

[4] = test system: adenoviruses; details: Ct value of 0.6 mg/L min, 5° C.; cited from earlier work
[5] = test system: MS-2 coliphage; assay: Ozone and UV disinfection of MS-2 phage in dechlorinated tap water; format: cell-based; details: Ozone Level (OR) 400 mV, exposure time 5 min; UV Dose 0 mJ/cm^2; room temperature, pH 7.6; MS-2 3.3×10^7 pfu/mL
Procedure: Propagation and assay of MS-2 coliphage was performed in accordance with Thurston-Enriquez et al. (2003a). Expected UV inactivation was derived from the work of Thurston-Enriquez et al. (2003a).
Ozone was generated by a corona discharge generator and injected into 4 L of dechlorinated tap water at room temperature and pH 7.6. The water was raised and maintained to an Oxidation Reduction Potential (OR) of 400 mV. On addition of the MS-2 to a concentration of 3.3×10^7 pfu/mL, the OR was maintained at 400 mV for five minutes. At the five minute mark, samples were drawn for MS-2 assay and the water was pumped through a UV (low pressure, high output UV lamp 14) at two gallons per minute. The UV dose was calibrated and known to be 12 mJ/cm^2. Following UV treatment, samples were taken for MS-2 assay. A duplicate trial was performed.

## O=[O+][O-] [Ozone, ozone]
[1]
  heterotrophic plate count after ozone disinfection stage: 680 cfu/mL
[2]
  Final Titer: 473 mL⁻¹
  Log10 Reduction: .071
[2]; listed as ozone
  Log10 Reduction: 0.71
[3]
  Final Titer: 2.08 × 10^5 TCID50/ml
  Log10 Reduction: 0.81
[4]
  inactivation of adenoviruses: more than 4 logs
[5]
  log Inactivation: 1 log and 1.06 log and 1.00 log

Reference: US20070248488A1, “METHOD AND APPARATUS FOR REDUCING MICROORGANISMS IN WATER” (VORTEX CORPORATION, priority 2006, published 2007)
